The record followed here is patent US20260325540A1 (priority 2023, published 2026).

Bounds are passed on as bounds.

By IC50 is commonly meant the midpoint of a concentration-inhibition curve. Low values mean higher potency, high ones lower potency.

The target of assay [1] is SARS-CoV-2 3CLpro (Severe acute respiratory syndrome coronavirus 2, UniProt P0DTD1). The assay can be described thus: FRET based protease assay, SARS-CoV-2 3CL. The assay is classed as biochemical, SARS-CoV-2 (strain BetaCoV/Wuhan/WIV04/2019).
In assay [2] the target is MERS-CoV 3CLpro (Middle East respiratory syndrome-related coronavirus, UniProt K9N638). The assay can be described thus: biochemical. To be noted: MERS IC50, 75 nM MERS-CoV 3CLpro, 6 μM peptide 1 substrate, 25° C., 1.5 hrs, pH 7.5.
MERS-CoV 3CLpro, sequence (K9N638 3248-3553 limits assumed): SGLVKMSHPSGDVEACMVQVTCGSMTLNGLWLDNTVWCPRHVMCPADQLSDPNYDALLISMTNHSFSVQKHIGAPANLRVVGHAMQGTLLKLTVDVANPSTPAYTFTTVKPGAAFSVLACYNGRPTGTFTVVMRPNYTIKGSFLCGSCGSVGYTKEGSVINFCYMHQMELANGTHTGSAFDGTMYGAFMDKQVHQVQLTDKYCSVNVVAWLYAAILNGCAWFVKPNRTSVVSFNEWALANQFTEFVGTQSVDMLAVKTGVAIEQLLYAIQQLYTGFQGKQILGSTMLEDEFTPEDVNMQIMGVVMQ

For the molecule `CC1(C)[C@@H]2[C@H]3C(=O)N[C@H](C#N)C[C@@H]4C(=O)NC[C@@H]4CCCC[C@H](NC(=O)c4ccc(F)cc4C(F)(F)F)C(=O)N3C[C@@H]21` [Example 139], the 50% inhibitory concentration (IC50) in assay [1] and in assay [2] was less than 100 nM throughout.

Turning to `CC(C)(C)C[C@@H]1NC(=O)[C@@H](NC(=O)OC(C)(C)C)CCCC[C@H]2CNC(=O)[C@H]2C[C@@H](C#N)NC1=O` [Example 60], the values for the IC50 in assay [1] and in assay [2] were less than 100 nM and 100 to 1000 nM, respectively.

On to `CC(C)(C)C(=O)N[C@H]1C/C=C\[C@H]2CNC(=O)[C@H]2C[C@@H](C#N)NC(=O)[C@@H]2[C@@H]3[C@H](CN2C1=O)C3(C)C` [Example 64], for which the IC50 in assay [1] and in assay [2] was greater than 20000 nM each time.

For the molecule `CC(C)(C)OC(=O)N[C@H]1CCCC[C@H]2CNC(=O)[C@H]2C[C@@H](C#N)NC(=O)[C@@H]2CCCCCN2C1=O` [Example 143], the IC50 in assay [1] and in assay [2] was 100 to 1000 nM in each case.

In the case of `CC1(C)[C@@H]2[C@H]3C(=O)N[C@H](C#N)C[C@@H]4C(=O)NC[C@@H]4CCCC[C@H](NC(=O)c4cccc(Cl)c4Cl)C(=O)N3C[C@@H]21` [Example 134], the IC50 in assay [1] and in assay [2] was less than 100 nM throughout.

As for `CC(C)C[C@@H]1NC(=O)CCCCCC[C@H]2CNCC(=O)[C@@H]2C[C@@H](C=O)NC1=O` [Example 52], the IC50 in assay [1] fell in the range of 100 to 1000 nM; in assay [2] it was 1000 to 20000 nM.

For the molecule `CC(C)(C)OC(=O)N[C@@H]1CCCC[C@H]2CNC(=O)[C@H]2C[C@@H](C#N)NC(=O)[C@@H]2[C@@H]3[C@H](CN2C1=O)C3(C)C` [Example 128], the IC50 in assay [1] and in assay [2] was greater than 20000 nM in each case.

Turning to `CC(C)(C)OC(=O)N[C@H]1CC/C=C/[C@H]2CNC(=O)[C@H]2C[C@@H](C#N)NC(=O)[C@@H]2[C@H]3CCC[C@H]3CN2C1=O` [Example 112], the IC50 in assay [1] was less than 100 nM; in assay [2], 100 to 1000 nM.

On to `Cc1nc(C(=O)N[C@H]2CCCC[C@H]3CNC(=O)[C@H]3C[C@@H](C#N)NC(=O)[C@@H]3[C@@H]4[C@H](CN3C2=O)C4(C)C)cs1` [Example 113], for which the IC50 in assay [1] was 100 to 1000 nM; in assay [2], less than 100 nM.

`N#C[C@@H]1C[C@@H]2C(=O)NC[C@@H]2CCCC[C@H](NC(=O)C2(C(F)(F)F)CC2)C(=O)N2CCC3(CC3)C[C@H]2C(=O)N1` [Example 151]: the IC50 in assay [1] is less than 100 nM; in assay [2], 100 to 1000 nM.

As to `CC(C)C[C@@H]1NC(=O)CCCCCC[C@@H]2CNC(=O)[C@@H]2C[C@@H](C=O)NC1=O` [Example 46], the IC50 in assay [1] and in assay [2] was 1000 to 20000 nM in each case.

Turning to `CC(C)(C)C(=O)N[C@H]1CC/C=C/[C@H]2CNC(=O)[C@H]2C[C@@H](C#N)NC(=O)[C@@H]2[C@H]3CCC[C@H]3CN2C1=O` [Example 86], the IC50 in assay [1] was less than 100 nM; in assay [2] it was 100 to 1000 nM.

`CC(C)C[C@@H]1NC(=O)[C@@H](C2CCCC2)CCC[C@@H]2CNC(=O)[C@@H]2C[C@@H](C=O)NC1=O` [Example 14]: the IC50 in assay [1] was 100 to 1000 nM; in assay [2], 1000 to 20000 nM.

Consider `CC1(C)[C@@H]2[C@H]3C(=O)N[C@H](C#N)C[C@@H]4C(=O)NC[C@@H]4CCCC[C@H](NS(=O)(=O)C(F)(F)F)C(=O)N3C[C@@H]21` [Example 158], for which the IC50 in assay [1] and in assay [2] was less than 100 nM each time.

Turning to `CC(C)C[C@@H]1NC(=O)[C@@H](NC(=O)OC(C)(C)C)CCC[C@H]2CNC(=O)[C@H]2C[C@@H](C=O)NC1=O` [Example 15], the IC50 in assay [1] and in assay [2] was 100 to 1000 nM each time.

Regarding `N#C[C@@H]1C[C@H]2C(=O)NC[C@@H]2CCCCC(=O)N2C[C@@H]3CCC[C@@H]3[C@H]2C(=O)N1` [Example 26], the IC50 in assay [1] and in assay [2] was greater than 20000 nM in each case.

As to `CC(C)C[C@@H]1NC(=O)CCCC[C@H]2CNC(=O)[C@@H]2C[C@@H](C#N)NC1=O` [Example 24], the IC50 in assay [1] and in assay [2] was 1000 to 20000 nM throughout.

Regarding `CC1(C)[C@@H]2[C@H]3C(=O)N[C@H](C#N)C[C@@H]4C(=O)NC[C@@H]4CCCC[C@H](Nc4cc(C(F)(F)F)ncn4)C(=O)N3C[C@@H]21` [Example 163], the IC50 in assay [1] was less than 100 nM; in assay [2], 100 to 1000 nM.

As for `CC1(C)[C@@H]2[C@H]3C(=O)N[C@H](C#N)C[C@@H]4C(=O)NC[C@@H]4CCCC[C@H](NC(=O)OC4CCCC4)C(=O)N3C[C@@H]21` [Example 75], the IC50 in assay [1] and in assay [2] was less than 100 nM in each case.

For the molecule `CC1(C)[C@@H]2[C@H]3C(=O)N[C@H](C#N)C[C@@H]4C(=O)NCC[C@@H]4CCCC[C@H](NC(=O)OC4CCCC4)C(=O)N3C[C@@H]21` [Example 124], the IC50 in assay [1] and in assay [2] was less than 100 nM throughout.

Consider `N#C[C@@H]1C[C@@H]2C(=O)NC[C@@H]2CCCC[C@H](NS(=O)(=O)c2ccc(F)cc2F)C(=O)N2C[C@@H]3CCC[C@@H]3[C@H]2C(=O)N1` [Example 155], for which the IC50 in assay [1] was less than 100 nM; in assay [2] it was 100 to 1000 nM.

As for `CC1(C)[C@@H]2[C@H]3C(=O)N[C@H](C#N)C[C@@H]4C(=O)NC[C@@H]4CCCC[C@H](NC(=O)CC4CC(F)(F)C4)C(=O)N3C[C@@H]21` [Example 89], the IC50 in assay [1] is less than 100 nM; in assay [2] it was 100 to 1000 nM.

As to `CC(C)(C)C(=O)N[C@H]1CCCC[C@H]2CCNC(=O)[C@@H]2C[C@@H](C#N)NC(=O)[C@@H]2[C@@H]3[C@H](CN2C1=O)C3(C)C` [Example 65], the figures for the IC50 in assay [1] and in assay [2] were less than 100 nM and 100 to 1000 nM, respectively.

For the molecule `CC1(C)[C@@H]2[C@H]3C(=O)N[C@H](C#N)C[C@@H]4C(=O)NCC[C@@H]4CCCC[C@H](NC(=O)C45CC(C(F)(F)F)(C4)C5)C(=O)N3C[C@@H]21` [Example 135], the IC50 in assay [1] was 100 to 1000 nM; in assay [2] it was less than 100 nM.

For `CC1(C)[C@@H]2[C@H]3C(=O)N[C@H](C#N)C[C@@H]4C(=O)NC[C@@H]4CCCC[C@H](NS(=O)(=O)C4CC4)C(=O)N3C[C@@H]21` [Example 156], the IC50 in assay [1] and in assay [2] was less than 100 nM in each case.

On to `CC(C)C[C@@H]1NC(=O)[C@@H](N(C)C(=O)OC(C)(C)C)CCC[C@H]2CNC(=O)[C@@H]2C[C@@H](C#N)NC1=O` [Example 22], for which the IC50 in assay [1] and in assay [2] was greater than 20000 nM throughout.

With `CC1(C)[C@@H]2[C@H]3C(=O)N[C@H](C#N)C[C@@H]4C(=O)NC[C@@H]4CCCC[C@H](NC(=O)c4cc(C(F)(F)F)on4)C(=O)N3C[C@@H]21` [Example 153], the IC50 in assay [1] is less than 100 nM; in assay [2] it was 100 to 1000 nM.

`CC1(C)[C@@H]2[C@H]3C(=O)N[C@H](C#N)C[C@@H]4C(=O)NC[C@@H]4CCCC[C@H](NC(=O)c4cncnc4)C(=O)N3C[C@@H]21` [Example 107]: the IC50 in assay [1] and in assay [2] was less than 100 nM throughout.

Turning to `CC(C)(C)OC(=O)N[C@H]1CCC[C@H]2CCNC(=O)[C@H]2C[C@@H](C#N)NC(=O)[C@@H]2[C@H]3CCC[C@H]3CN2C1=O` [Example 100], the IC50 in assay [1] and in assay [2] was 1000 to 20000 nM in each case.

Take `N#C[C@@H]1C[C@@H]2C(=O)NC[C@@H]2CCCC[C@H](Nc2nccc(C(F)(F)F)n2)C(=O)N2C[C@@H]3CCC[C@@H]3[C@H]2C(=O)N1` [Example 165]: the IC50 in assay [1] was less than 100 nM; in assay [2], 100 to 1000 nM.

In the case of `CC1(C)[C@@H]2[C@H]3C(=O)N[C@H](C#N)C[C@@H]4C(=O)NC[C@@H]4CCCC[C@H](NC(=O)C4CC5(CCC5)C4)C(=O)N3C[C@@H]21` (stereo partly drawn) [Example 81], the IC50 in assay [1] was less than 100 nM; in assay [2], 100 to 1000 nM.

For the molecule `CC1(C)[C@@H]2[C@H]3C(=O)N[C@H](C#N)C[C@@H]4C(=O)NC[C@@H]4/C=C/CC[C@H](NC(=O)C(F)(F)F)C(=O)N3C[C@@H]21` [Example 108], the IC50 in assay [1] and in assay [2] was less than 100 nM each time.

`CC(C)(C)OC(=O)N[C@@]1(C)CCCCC[C@H]2CNC(=O)[C@H]2C[C@@H](C#N)NC(=O)[C@@H]2[C@@H]3[C@H](CN2C1=O)C3(C)C` [Example 126]: the IC50 in assay [1] and in assay [2] was greater than 20000 nM each time.

On to `CC1(C)[C@@H]2[C@H]3C(=O)N[C@H](C#N)C[C@@H]4C(=O)NC[C@@H]4CCCC[C@H](NC(=O)C4CCC4)C(=O)N3C[C@@H]21` [Example 76], for which the figures for the IC50 in assay [1] and in assay [2] were less than 100 nM and 100 to 1000 nM, respectively.

`CC(C)(C)OC(=O)N[C@H]1CCCC[C@H]2CNC(=O)[C@H]2C[C@@H](C#N)NC(=O)[C@H](CC2CCCC2)NC1=O` [Example 137]: the values for the IC50 in assay [1] and in assay [2] were less than 100 nM and 1000 to 20000 nM, respectively.

With `CC(C)C[C@H]1C(=O)N[C@H](C#N)C[C@@H]2C(=O)NC[C@@H]2CCCC[C@H](NC(=O)C(C)(C)C)C(=O)N1C` [Example 57], the IC50 in assay [1] lay within 100 to 1000 nM; in assay [2], 1000 to 20000 nM.

On to `CC1(C)[C@@H]2[C@H]3C(=O)N[C@H](C#N)C[C@@H]4C(=O)NC[C@@H]4CCCC[C@H](NS(=O)(=O)C4CCC4)C(=O)N3C[C@@H]21` [Example 160], for which the IC50 in assay [1] and in assay [2] was less than 100 nM throughout.

As for `CN1C(=O)[C@@H](NC(=O)C(C)(C)C)CCCC[C@H]2CNC(=O)[C@H]2C[C@@H](C#N)NC(=O)[C@@H]1CC(C)(C)C` [Example 78], the results for the IC50 in assay [1] and in assay [2] were less than 100 nM and 1000 to 20000 nM, respectively.

Turning to `CC1(C)[C@@H]2[C@H]3C(=O)N[C@H](C#N)C[C@@H]4C(=O)NCC[C@@H]4CCCC[C@H](NC(=O)C(F)(F)F)C(=O)N3C[C@@H]21` [Example 104], the IC50 in assay [1] and in assay [2] was less than 100 nM in each case.

`CC(C)(C)OC(=O)N[C@H]1CC/C=C/[C@H]2CNC(=O)[C@H]2C[C@@H](C#N)NC(=O)[C@@H]2[C@@H]3[C@H](CN2C1=O)C3(C)C` [Example 92]: the IC50 in assay [1] and in assay [2] was less than 100 nM in each case.

In the case of `CC(C)(C)C(=O)N[C@H]1CCCC[C@H]2CCNC(=O)[C@H]2C[C@@H](C#N)NC(=O)[C@@H]2[C@@H]3[C@H](CN2C1=O)C3(C)C` [Example 69], the IC50 in assay [1] was less than 100 nM; in assay [2], 100 to 1000 nM.

Turning to `CC(C)C[C@@H]1NC(=O)CCCCCC[C@H]2CNC(=O)[C@H]2C[C@@H](C=O)NC1=O` [Example 45], the IC50 was in the range of 100 to 1000 nM in assay [1] and 1000 to 20000 nM in assay [2].
